Measured values as given in the supplement of paper PMC10307832.

How the values were obtained:
Assay in all cases: relative viability (nuclei count vs DMSO), 5 days (fraction); higher = more cells survive
Linsitinib + AZD7762 = compound: C[C@]1(O)C[C@@H](c2nc(-c3ccc4ccc(-c5ccccc5)nc4c3)c3c(N)nccn32)C1 [Linsitinib] + NC(=O)Nc1cc(-c2cccc(F)c2)sc1C(=O)N[C@H]1CCCNC1 [AZD7762] (partner 0.2 µM)
Method in brief: (§1)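 Lung cancer cell lines were seeded in 1536-well plates and dosed by pin tool the next day, with either a single drug or a fixed anchor-drug dose combined with five library-drug doses (not always all listed) spaced in √10 steps. Five days later, one step fixed the cells and stained their nuclei (final 0.05% Triton X-100, 1% formaldehyde, 1 ug/ml Hoechst), and nuclei were counted on 4× images. Relative viability is the nuclei count in treated wells divided by the count in vehicle wells, and each value is the median of duplicate plates.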

Linsitinib + Navitoclax = compound: C[C@]1(O)C[C@@H](c2nc(-c3ccc4ccc(-c5ccccc5)nc4c3)c3c(N)nccn32)C1 [Linsitinib] + CC1(C)CCC(c2ccc(Cl)cc2)=C(CN2CCN(c3ccc(C(=O)NS(=O)(=O)c4ccc(N[C@H](CCN5CCOCC5)CSc5ccccc5)c(S(=O)(=O)C(F)(F)F)c4)cc3)CC2)C1 [Navitoclax] (partner 0.5 µM)
Method in brief: as §1

Linsitinib + Alpelisib = compound: C[C@]1(O)C[C@@H](c2nc(-c3ccc4ccc(-c5ccccc5)nc4c3)c3c(N)nccn32)C1 [Linsitinib] + Cc1nc(NC(=O)N2CCC[C@H]2C(N)=O)sc1-c1ccnc(C(C)(C)C(F)(F)F)c1 [Alpelisib] (partner 2 µM)
Method in brief: as §1

Ispinesib + Navitoclax = compound: Cc1ccc(C(=O)N(CCCN)[C@@H](c2nc3cc(Cl)ccc3c(=O)n2Cc2ccccc2)C(C)C)cc1 [Ispinesib] + CC1(C)CCC(c2ccc(Cl)cc2)=C(CN2CCN(c3ccc(C(=O)NS(=O)(=O)c4ccc(N[C@H](CCN5CCOCC5)CSc5ccccc5)c(S(=O)(=O)C(F)(F)F)c4)cc3)CC2)C1 [Navitoclax] (partner 0.5 µM)
Method in brief: as §1

Cell Line	relative viability (Linsitinib + AZD7762; first compound 0.03162 µM)	relative viability (Linsitinib + AZD7762; first compound 0.1 µM)	relative viability (Linsitinib + AZD7762; first compound 0.3162 µM)	relative viability (Linsitinib + AZD7762; first compound 1 µM)	relative viability (Linsitinib + Navitoclax; first compound 0.01 µM)	relative viability (Linsitinib + Navitoclax; first compound 0.03162 µM)	relative viability (Linsitinib + Navitoclax; first compound 0.1 µM)	relative viability (Linsitinib + Navitoclax; first compound 0.3162 µM)	relative viability (Linsitinib + Navitoclax; first compound 1 µM)	relative viability (Linsitinib + Alpelisib; first compound 0.01 µM)	relative viability (Linsitinib + Alpelisib; first compound 0.03162 µM)	relative viability (Linsitinib + Alpelisib; first compound 0.1 µM)	relative viability (Linsitinib + Alpelisib; first compound 0.3162 µM)	relative viability (Linsitinib + Alpelisib; first compound 1 µM)	relative viability (Ispinesib + Navitoclax; first compound 0.001 µM)	relative viability (Ispinesib + Navitoclax; first compound 0.003162 µM)	relative viability (Ispinesib + Navitoclax; first compound 0.01 µM)	relative viability (Ispinesib + Navitoclax; first compound 0.1 µM)	relative viability (Linsitinib + AZD7762; first compound 0.01 µM)	relative viability (Ispinesib + Navitoclax; first compound 0.03162 µM)
HCC-78	0.56	0.415	0.666	0.472	0.882	0.889	0.711	0.789	0.661	0.413	0.439	0.26	0.312	0.261	0.706	0.851	0.85	0.657	–	–
HCC-366	0.228	0.301	0.361	0.12	1.04	0.782	1.12	0.921	0.996	0.416	0.239	0.446	0.242	0.201	1.16	1.02	1.31	0.27	0.261	1.2
HCC-827	0.223	0.207	–	0.221	1	1.04	1.01	–	0.974	0.995	1.02	0.967	–	0.915	0.996	1.06	1.03	1.01	0.151	1
HOP-62	0.577	0.769	–	0.298	1.08	1.12	1.13	0.636	0.823	0.862	1.09	0.949	–	0.933	1.19	1.12	1.53	0.171	0.583	1.12
IA-LM	–	–	–	–	0.882	0.785	0.775	0.6	0.531	0.829	0.809	0.743	0.387	0.51	0.969	0.751	0.44	0.0187	–	0.0088
LC-2-ad	0.816	0.814	0.805	0.54	0.368	0.406	0.486	0.339	0.368	0.84	0.73	0.822	0.633	0.733	0.391	0.487	0.474	0.122	0.862	0.171
LCLC-97TM1	0.271	0.317	0.162	0.271	0.39	0.396	0.552	0.264	0.484	0.237	0.267	0.189	0.215	0.206	0.433	0.489	0.52	0.157	0.299	0.557
LCLC-103H	0.721	0.84	0.9	0.634	–	–	–	–	–	0.896	0.943	0.975	1.09	0.942	–	–	–	–	0.785	–
NCI-H358	0.473	0.563	0.366	0.321	–	–	–	–	–	0.794	0.804	0.734	0.471	0.479	–	–	–	–	0.668	–
NCI-H520	–	–	–	–	1.15	0.685	1.1	–	0.893	0.873	0.762	0.97	–	0.962	1.02	1.14	1.04	0.286	–	0.274
NCI-H522	0.958	1.09	0.654	0.612	–	–	–	–	–	–	–	–	–	–	–	–	–	–	0.771	–
NCI-H650	0.801	0.922	–	0.905	–	–	–	–	–	1.34	1.23	1.02	–	1.07	–	–	–	–	1.01	–
NCI-H661	–	–	–	–	–	–	–	–	–	0.593	0.539	0.46	0.667	0.449	–	–	–	–	–	–
NCI-H1299	–	–	–	–	1.07	1.03	1.03	0.916	1.04	1.05	1.07	1.12	1.01	1.04	1.02	1.08	1.08	0.52	–	1.01
NCI-H1563	–	–	–	–	–	–	–	–	–	0.909	0.924	0.85	0.861	0.928	–	–	–	–	–	–
NCI-H1648	0.671	0.713	0.692	0.612	–	–	–	–	–	–	–	–	–	–	–	–	–	–	0.683	–
NCI-H1650	–	–	–	–	1.33	1.36	1.29	0.743	1.1	–	–	–	–	–	1.33	1.32	1.23	0.25	–	0.258
NCI-H2009	–	–	–	–	1.15	1.24	1.22	1.01	1.2	1.17	1.17	1.2	1.03	1.13	1.28	1.23	1.32	0.374	–	0.678
NCI-H2023	–	–	–	–	1.02	0.628	1.07	0.839	0.87	0.533	0.426	0.502	0.425	0.392	1.07	1.09	1.1	0.21	–	0.837
NCI-H2228	–	–	–	–	0.81	1.09	0.941	0.787	0.791	0.594	0.746	0.723	0.493	0.586	0.896	0.896	1.37	0.187	–	0.878
NCI-H2342	0.544	0.526	0.454	0.414	–	–	–	–	–	–	–	–	–	–	–	–	–	–	0.405	–
SK-LU-1	–	–	–	–	0.903	0.777	0.793	–	0.774	0.975	0.908	1.03	–	1.09	0.955	0.794	1.23	0.164	–	0.415
SK-MES-1	–	–	–	–	1.26	1.31	1.33	0.979	1.16	0.9	1.02	0.907	0.814	0.854	1.47	1.2	1.14	0.227	–	0.922
SW 900	0.64	0.629	0.727	0.368	–	–	–	–	–	–	–	–	–	–	–	–	–	–	0.921	–
SW 1573	–	–	–	–	0.921	0.925	1	0.81	0.701	0.677	0.831	0.761	0.655	0.654	1.22	1	1.21	0.17	–	0.915
